The values that follow come from patent US10227357B2, “Compounds and methods for kinase modulation, and indications therefor” (Plexxikon Inc., priority 2012, dated 2019).

Broadly, the IC50 is the concentration at which inhibition is half-maximal.

In one assay the target is T1, c-kit kinase (Homo sapiens, UniProt P10721).
T1 construct: The c-kit (or kinase domain thereof) is an active kinase in AlphaScreen; poly-Histidine tag (in-house protein only) (cleaved yes); host or cells: E. coli BL21(DE3)RIL, co-expressed with PTP1B
Nature of the assay: c-Kit biochemical assay, AlphaScreen, 10 μM ATP. The settings on record: c-kit biochemical inhibitory activity; read-out: Biochemical activity (IC50 μM) Kit. An outline of the steps:
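His-tagged c-Kit expressed in E. coli with co-expressed PTP1B (dephosphorylated), tag removed; 0.1 ng per reaction with biotinylated-peptide substrate in 50 mM HEPES pH 7.2, 5 mM MgCl2, 5 mM MnCl2, 5% DMSO, 10 μM ATP, 1 h at room temperature. Phosphorylation detected by AlphaScreen (streptavidin donor, PY20 acceptor beads); IC50 from 8-point 1:3 dilution series.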
On the technique in general: In Alpha technology, singlet oxygen from a donor bead excites a nearby acceptor bead.

In another assay the target is T2, c-kit mutant D816V (Homo sapiens, UniProt P10721, D816V/DEL694-753).
T2 construct: residues 551-934, kinase insertion domain residues 694-753 deleted; 6x-histidine (N); made in house; host or cells: E. coli Arctic Express (DE3) RIL (Stratagene)
The assay can be described thus: c-Kit mutant D816V biochemical assay, AlphaScreen. Particulars: c-kit D816V biochemical inhibitory activity; read-out: Biochemical activity (IC50 μM) Kit D816V. Put shortly: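 Eight-point, threefold compound series incubated 30 min at room temperature with E. coli-produced D816V kinase, 10 μM ATP, Mg2+/Mn2+ HEPES buffer pH 7.2 and 5% DMSO. After EDTA stop, streptavidin and anti-phosphotyrosine (PY20) AlphaScreen beads gave the read-out, and IC50 was fitted from the concentration–signal curve.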

Assay [1] has as its system cells with activating c-kit mutations in the catalytic region. Particulars: Ma et al., 2002; cited from earlier work.
The target of the next assay is D816V KIT mutation (Homo sapiens, UniProt P10721, D816V). Particulars: Frost et al., 2002; cited from earlier work.
D816V KIT mutation, sequence (P10721 26-976 D816V): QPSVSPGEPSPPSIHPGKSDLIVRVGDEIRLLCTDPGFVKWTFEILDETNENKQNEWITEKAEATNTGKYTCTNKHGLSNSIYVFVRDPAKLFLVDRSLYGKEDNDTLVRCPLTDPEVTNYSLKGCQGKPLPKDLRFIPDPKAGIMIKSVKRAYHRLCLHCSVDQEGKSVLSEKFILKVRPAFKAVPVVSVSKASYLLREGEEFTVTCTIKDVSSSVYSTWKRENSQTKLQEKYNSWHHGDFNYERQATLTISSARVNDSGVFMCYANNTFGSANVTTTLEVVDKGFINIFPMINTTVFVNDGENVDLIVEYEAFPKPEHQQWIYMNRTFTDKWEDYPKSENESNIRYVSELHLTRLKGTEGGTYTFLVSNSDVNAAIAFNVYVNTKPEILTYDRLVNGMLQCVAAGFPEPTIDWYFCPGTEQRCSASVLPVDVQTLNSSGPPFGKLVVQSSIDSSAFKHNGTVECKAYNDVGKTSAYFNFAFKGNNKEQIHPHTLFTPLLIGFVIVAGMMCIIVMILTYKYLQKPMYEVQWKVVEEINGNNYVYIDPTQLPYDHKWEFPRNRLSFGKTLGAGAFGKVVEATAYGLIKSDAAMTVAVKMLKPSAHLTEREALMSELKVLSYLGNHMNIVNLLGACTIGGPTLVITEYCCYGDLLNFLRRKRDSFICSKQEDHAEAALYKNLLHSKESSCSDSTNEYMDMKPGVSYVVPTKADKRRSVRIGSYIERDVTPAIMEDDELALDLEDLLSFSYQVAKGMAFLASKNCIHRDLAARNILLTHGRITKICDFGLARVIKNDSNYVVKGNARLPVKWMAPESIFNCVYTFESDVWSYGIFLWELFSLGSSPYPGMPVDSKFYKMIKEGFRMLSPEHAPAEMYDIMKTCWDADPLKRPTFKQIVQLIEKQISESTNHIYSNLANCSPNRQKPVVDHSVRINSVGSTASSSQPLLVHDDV

T1 sequence (P10721 26-976): as the sequence (P10721 26-976 D816V) above, with V791D counted along it
T2 sequence (P10721 with tags, fused parts or gaps DEL694-753/D816V): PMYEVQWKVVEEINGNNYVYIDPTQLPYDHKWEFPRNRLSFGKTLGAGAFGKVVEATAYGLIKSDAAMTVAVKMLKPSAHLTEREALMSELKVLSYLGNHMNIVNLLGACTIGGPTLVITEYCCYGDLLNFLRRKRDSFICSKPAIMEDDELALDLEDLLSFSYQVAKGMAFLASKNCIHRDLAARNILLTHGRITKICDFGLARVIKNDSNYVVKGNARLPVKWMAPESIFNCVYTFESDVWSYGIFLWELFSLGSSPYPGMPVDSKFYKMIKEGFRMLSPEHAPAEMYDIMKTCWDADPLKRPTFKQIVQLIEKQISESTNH

As for `Cc1cc2c(N3CCC(NS(=O)(=O)c4ccc(Cl)cc4)CC3)ncnc2[nH]1` [P-0728, 4-chloro-N-[1-(6-methyl-7H-pyrrolo[2,3-d]pyrimidin-4-yl)-4-piperidyl]benzenesulfonamide], the IC50 on c-kit kinase and at c-kit mutant D816V was 0.0001 to 1 µM throughout.

With `Cc1cc2c(C3=CCC(NS(=O)(=O)c4ccc(Cl)cc4)CC3)ncnc2[nH]1` (centres unmarked) [P-0729, 4-chloro-N-[4-(6-methyl-7H-pyrrolo[2,3-d]pyrimidin-4-yl)cyclohex-3-en-1-yl]benzenesulfonamide], the IC50 on c-kit kinase and at c-kit mutant D816V was 0.0001 to 1 µM each time.

Regarding `CCc1ccc(S(=O)(=O)NC2CCN(c3ncnc4[nH]c(C)cc34)CC2)s1` [P-0730, 5-ethyl-N-[1-(6-methyl-7H-pyrrolo[2,3-d]pyrimidin-4-yl)-4-piperidyl]thiophene-2-sulfonamide], the IC50 at c-kit kinase and at c-kit mutant D816V was 0.0001 to 1 µM each time.

Regarding `Cc1ccc(NC(=O)c2ccc(CN3CCN(C)CC3)cc2)cc1Nc1nccc(-c2cccnc2)n1` [STI571], the “inhibition of cells with c-kit mutations in the catalytic region” value in assay [1] is given as “did not inhibit”.

For the compound `Cc1ccc(NC(=O)c2ccc(CN3CCN(C)CC3)cc2)cc1Nc1nccc(-c2cccnc2)n1` [imatinib], the “sensitivity of D816V KIT mutation” value on D816V KIT mutation was “resistant”.
